Measurements reported in patent US12570612B2, “Substituted nitrogen heterocyclic compound and anesthetic effect thereof” (priority 2019, dated 2026).
“Also recorded” adds a separate entry of the source. Like-named read-outs stand apart in the source and are kept apart here.

Legend:
[1] = test system: circulatory function of rats; assay: Circulatory function of rats (MAP, HR) by implanted telemetry, Group C compounds; conditions: 2ED50, rats, FIG. 13-16
From the text: (§4) First, the animal model was established, and the left ventricular catheter, abdominal aorta catheter and electrocardiogram wire were placed. At least one week after the operation, the signal can be collected to start the test. At the beginning of the experiment, after the placement of the indwelling needle in the tail vein of rats, connect the extension tube, put the rats together with the feeding cage on the signal receiver and start collecting data. […] All compounds or drugs were given at a constant volume of 0.6 ml at a uniform rate of 0.1 ml/s.

Sprague-Dawley rats [2] = assay type: in vivo; conditions: tail vein
Sprague-Dawley rats [3] = assay: Pharmacological effect and adverse reactions under the equivalent dose (2ED50), Group D compounds; assay type: in vivo
From the text: (§1) Evaluation index: onset time: from the completion of drug injection to the disappearance of forepaw righting reflex in rats; Duration of anesthesia: the time from the disappearance of rat forepaw righting reflex to the recovery of rat forepaw righting reflex; Recovery time of anesthesia: the time from the […] to complete recovery;

Sprague-Dawley rats [4] = assay: animal or person; assay type: in vivo; conditions: Rattus norvegicus; LORR, up and down method, tail vein, rats; brackets = 95% confidence limit; read-out: ED50
From the text: Evaluating indicator: The end point of anesthesia: LORR was used as the end point of anesthesia; General anesthesia effect: the disappearance of forepaw righting reflex in rats lasting for 30 seconds is taken as the index of general anesthesia effect; Anesthesia recovery index: the recovery of rat forepaw righting reflex was used as the index of anesthesia recovery.

adrenal cortex function [5] = conditions: rat, in vivo
Sprague-Dawley rats [6] = assay type: in vivo; conditions: tail vein; remark: listed apart in the source
SD rats [7] = test system: SD rats
How it was run: (§2)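 Adult male SD rats (250–350 g) received continuous infusion. Read-outs: time from infusion start to […]; after 1 h infusion, time from stop to return of forepaw turning reflex and to full recovery.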

Sprague-Dawley rats [8] = assay: animal or person
Description: (§3) Adult male Sprague-Dawley rats (250-300 g) were selected for the experiment. […] The anesthesia effects of the compounds were assessed in rats using a LORR assay and a period >30 s was considered as an indicator of general anesthesia.

adrenal cortex function [9] = conditions: rat, in vivo; remark: listed apart in the source
H295R cell line [10] = assay: Adrenocortical function in vitro test: secretion of cortisol and corticosterone, Group A compounds; assay type: cell-based; conditions: H295 cells; for EC50: Homo sapiens, 0.1-10000 nM, HPLC-MS/MS
Sprague-Dawley rats [11] = test system: Sprague-Dawley rats
Description: Adult male Sprague-Dawley rats with body weight ranging from 250 to 300 gm were selected for continuous infusion test. […] Time to recovery of righting reflex from stopping infusion, and time to fully awake from stopping infusion were recorded.

Sprague-Dawley rats [12] = assay: Continuous infusion at 2 times the MIR for 1 hour, Group B compounds; assay type: in vivo
H295R cell line [13] = assay: Adrenocortical function in vitro test: secretion of cortisol and corticosterone, Group B compounds; assay type: cell-based; conditions: H295R cells; for EC50: Homo sapiens, NCI-H295R, 0.1-10000 nM, HPLC-MS/MS
Sprague-Dawley rats [14] = assay: animal or person; remark: listed apart in the source
Description: as §3

[15] = test system: circulatory function of rats; assay: Circulatory function of rats (MAP, HR) by implanted telemetry, Group D compounds; conditions: 2ED50, rats, FIG. 19-22
From the text: as §4
Evaluation indexes: Collect the blood pressure, heart rate and other data of rats during and 15 minutes after administration, and judge the effect of the compound of the invention on the circulatory function of rats with the indexes of mean arterial pressure (MAP) and heart rate (HR).

11β-Hydroxylase = biological target: T1, 11β-Hydroxylase (Homo sapiens, UniProt P15538); conditions: cited from earlier work
T1 sequence (P15538 25-503): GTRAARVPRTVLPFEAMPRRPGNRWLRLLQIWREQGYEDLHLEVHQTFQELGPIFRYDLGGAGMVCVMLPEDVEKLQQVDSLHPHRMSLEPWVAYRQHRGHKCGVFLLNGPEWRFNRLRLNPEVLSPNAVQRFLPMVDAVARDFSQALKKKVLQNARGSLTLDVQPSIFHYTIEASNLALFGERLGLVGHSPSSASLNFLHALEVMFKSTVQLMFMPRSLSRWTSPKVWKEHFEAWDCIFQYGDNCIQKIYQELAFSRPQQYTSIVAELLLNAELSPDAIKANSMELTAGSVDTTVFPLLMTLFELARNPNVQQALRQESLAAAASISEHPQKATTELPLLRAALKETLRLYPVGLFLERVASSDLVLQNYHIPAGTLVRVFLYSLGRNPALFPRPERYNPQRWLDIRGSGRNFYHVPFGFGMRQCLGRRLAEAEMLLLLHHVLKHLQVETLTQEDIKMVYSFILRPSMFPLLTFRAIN

[16] = test system: circulatory function of rats; conditions: rat, in vivo
Description: First, animal models were established. […] At least one week after surgery, data were recorded.
Finally, the pharmacological effects, adverse reactions, and behavioral manifestations of the rats were observed and recorded
After data acquisition, the test was stopped.

[17] = test system: circulatory function of rats; conditions: rat, in vivo; remark: listed apart in the source
Sprague-Dawley rats [18] = assay: animal or person; assay type: in vivo; conditions: Rattus norvegicus; LORR, up and down method, tail vein, rats; brackets = 95% confidence limit; read-out: ED50; remark: listed apart in the source
From the text: Evaluating indicator: The end point of anesthesia: the disappearance of forepaw righting reflex (lorr) was used as the end point of anesthesia; General anesthesia effect: the disappearance of forepaw righting reflex in rats lasting for 30 seconds is taken as the index of general anesthesia effect; Anesthesia recovery index: the recovery of rat forepaw righting reflex was used as the index of anesthesia recovery.

SD rats [19] = test system: SD rats; remark: listed apart in the source
How it was run: as §2

Sprague-Dawley rats [20] = assay: Pharmacological effect and adverse reactions under the equivalent dose (2ED50), Group C compounds; assay type: in vivo
From the text: as §1

[21] = 2ED50, tail vein, rats, n=8, unit s
[22] = equivalent dose (2 × ED50), number of rats of n = 8
[23] = after 1 hour continuous infusion at 2 times the MIR, SD rats
[24] = continuous infusion 2 x MIR 1 hour, rats affected/rats
[25] = continuous tail vein infusion at 2 times the MIR, SD rats
[26] = read-out: EC50 (Corticosterone)
[27] = equivalent dose (2ED50), number of rats of n = 8

With CCOC(=O)c1cncn1C(C)c1ccccc1 (stereo not drawn) [Etomidate, reference compound] the “effect on the circulatory function (MAP, HR)” value [1] was “slight inhibitory effect on the circulatory function after administration, but soon rises to near the baseline”, the Minimal lethal dose (Sprague-Dawley rats [2]) was 13.8 mg/kg and the Onset time (Sprague-Dawley rats [3]; [21]) was less than 30 s. For the same molecule, the “Adverse reaction: Convulsions” value (Sprague-Dawley rats [3]; [22]) was 0, the “Adverse reaction: Cough, broken-winded” value (Sprague-Dawley rats [3]; [22]) was 0 and the “Adverse reaction: Euphoria” value (Sprague-Dawley rats [3]; [22]) was 0. The “Adverse reaction: Four limbs rigidity” value (Sprague-Dawley rats [3]; [22]) was 2, the “Adverse reaction: Slower breathing, Tetany convulsion” value (Sprague-Dawley rats [3]; [22]) was 0 and the “Adverse reaction: Systemic stiffness, Convulsions, Opisthotonus” value (Sprague-Dawley rats [3]; [22]) was 0. The “Adverse reaction: Tongue stretching” value (Sprague-Dawley rats [3]; [22]) was 4, the “Adverse reaction: Tremor” value (Sprague-Dawley rats [3]; [22]) was 3 and the ED50 (Sprague-Dawley rats [4]) was 0.74 mg/kg. For the same molecule, the “effect on the synthesis of adrenal cortex hormone (serum corticosterone)” value (adrenal cortex function [5]) was “obvious inhibitory effect on adrenal cortex function”, the Minimal lethal dose (Sprague-Dawley rats [6]) was 13.8 mg/kg and the “After the infusion is stopped: Righting reflex recovery time” value (SD rats [7]; [23]) was 15 to 20 min. For the same molecule, the “Recovery time after stopping infusion” value (SD rats [7]; [23]) was 30 to 40 min, the “Types and incidence of adverse reactions: Hindlimb rigidity” value (SD rats [7]; [24]) was “Hindlimb rigidity(2/6)” and the “Types and incidence of adverse reactions: Myoclonus” value (SD rats [7]; [24]) was 4/6. For the same molecule, the “Types and incidence of adverse reactions: Tongue stretching” value (from here on “Types and incidence … Tongue stretching”) (SD rats [7]; [24]) was “Tongue stretching(2/6),”, the “Types and incidence of adverse reactions: Tremor” value (“Types and incidence … Tremor” below) (SD rats [7]; [24]) was 6/6 and the Sedation onset time (SD rats [7]; [25]) was less than 5 min. The ED50 (Sprague-Dawley rats [8]; Rattus norvegicus) was 0.75 mg/kg, the Minimal lethal dose (Sprague-Dawley rats [8]; rats) was 12.75 mg/kg and the “effect on the synthesis of adrenal cortex hormone (serum corticosterone)” value (adrenal cortex function [9]) was “obvious inhibitory effect on adrenal cortex function”. The “Corticosterone as an indicator to determine the presence of inhibition” value (H295R cell line [10]) was 2, the “Cortisol as an indicator to determine the presence of inhibition” value (H295R cell line [10]) was 2 and the EC50 (H295R cell line [10]; [26]) was greater than 10 nM. The EC50 (H295R cell line [10]; read-out: EC50 (Cortisol)) was greater than 1 nM, the “Recovery time after stopping infusion” value (Sprague-Dawley rats [11]; LORR maintained for 1 hour, 2 times the MIR) was 25 to 30 min and the Onset time (Sprague-Dawley rats [11]; continuous infusion, 2 times the MIR) was 4 to 5 min. For the same molecule, the “Types and incidence of adverse reactions” value (Sprague-Dawley rats [11]; continuous infusion, (animals affected/animals)) was “Tonguestretching(5/6); also recorded: Tremor(6/6), Facial; also recorded: muscle twitching (4/6)”, the “Recovery time after stopping infusion” value (Sprague-Dawley rats [12]; after 1 hour continuous infusion at 2 times the MIR, rats) was 25 to 30 min and the “Types and incidence of adverse reactions: Facial muscle twitching” value (Sprague-Dawley rats [12]; [24]) was 4/6. For the same molecule, the “Types and incidence … Tongue stretching” value (Sprague-Dawley rats [12]; [24]) was “Tongue stretching (5/6)”, the “Types and incidence … Tremor” value (Sprague-Dawley rats [12]; [24]) was “Tremor (6/6), Facial” and the Onset time (Sprague-Dawley rats [12]; continuous tail vein infusion at 2 times the MIR, emulsion, rats) was 4 to 5 min. For the same molecule, the “Corticosterone as an indicator to determine the presence of inhibition” value (H295R cell line [13]) was 2, the “Cortisol as an indicator to determine the presence of inhibition” value (H295R cell line [13]) was 2 and the EC50 (H295R cell line [13]; [26]) was greater than 10 nM. It also gave an EC50 (H295R cell line [13]; read-out: EC50 (Cortisol)) greater than 1 nM, an ED50 (Sprague-Dawley rats [14]; Rattus norvegicus, LORR in rats, tail vein, brackets = 95% confidence limit) of 0.75 mg/kg and a Minimal lethal dose (Sprague-Dawley rats [14]; rats) of 12.75 mg/kg. For the same molecule, the “effect on the circulatory function (MAP, HR)” value [15] was “slight inhibitory effect on the circulatory function after administration, but soon rises to near the baseline”, the “inhibition of 11β-Hydroxylase” value (11β-Hydroxylase) was “can inhibit the key enzymes in the synthesis pathway of adrenocortical hormone” and the “inhibitory effect on the circulatory function (MAP, HR)” value [16] was “almost no inhibitory effect on the circulatory function”. For the same molecule, the “inhibitory effect on the circulatory function (MAP, HR)” value [17] was “almost no inhibitory effect on the circulatory function”, the ED50 (Sprague-Dawley rats [18]) was 0.74 mg/kg and the “After the infusion is stopped: Righting reflex recovery time” value (SD rats [19]; [23]) was 15 to 20 min. The “Recovery time after stopping infusion” value (SD rats [19]; [23]) was 30 to 40 min, the “Types and incidence of adverse reactions: Hindlimb rigidity” value (SD rats [19]; [24]) was “Hindlimb rigidity(2/6)” and the “Types and incidence of adverse reactions: Myoclonus” value (SD rats [19]; [24]) was 4/6. For the same molecule, the “Types and incidence … Tongue stretching” value (SD rats [19]; [24]) was “Tongue stretching(2/6),”, the “Types and incidence … Tremor” value (SD rats [19]; [24]) was 6/6 and the Sedation onset time (SD rats [19]; [25]) was less than 5 min. For the same molecule, the Onset time (Sprague-Dawley rats [20]; [21]) was less than 30 s, the “Adverse reaction: Convulsions” value (Sprague-Dawley rats [20]; [27]) was 0 and the “Adverse reaction: Cough, broken-winded” value (Sprague-Dawley rats [20]; [27]) was 0. For the same molecule, the “Adverse reaction: Euphoria” value (Sprague-Dawley rats [20]; [27]) was 0, the “Adverse reaction: Slower breathing, Tetany convulsion” value (Sprague-Dawley rats [20]; [27]) was 0 and the “Adverse reaction: Systemic stiffness, Convulsions, Opisthotonus” value (Sprague-Dawley rats [20]; [27]) was 0. The “Adverse reaction: Tongue stretching” value (Sprague-Dawley rats [20]; [27]) was 4, the “Adverse reaction: Tremor” value (Sprague-Dawley rats [20]; [27]) was 6 and the “Adverse reaction: the four limbs rigidity” value (Sprague-Dawley rats [20]; [27]) was 0.
